Reference: EP4772510A2, “BENZAZEPINONE COMPOUND AND USE THEREOF” (HANGZHOU BIO-SINCERITY PHARMA-TECHCO., LTD., priority 2023, dated 2025)

Molecular target: T1, hERG ion channel (Homo sapiens, UniProt Q12809)
T1 construct: expressed in transfected cells
Experiment: Inhibition of hERG ion channel (whole-cell patch clamp, HEK293 cells)
Assay type: cell-based
Conditions: compound 10 µM, room temperature
Procedure: Example 58: Inhibition of hERG Ion Channel by Compounds
The hERG ion channel was stably expressed in HEK293 cells.
The test sample was dissolved in dimethyl sulfoxide (DMSO) to prepare a 9 mM stock solution, which was stored in a -20 °C freezer. On the testing day, the stock solution was further dissolved in the extracellular fluid to achieve the required concentrations. The concentration for electrophysiological test was 10 µM.
The extracellular fluid (mM) was: sodium chloride, 137; potassium chloride, 4; calcium chloride, 1.8; magnesium chloride, 1; HEPES, 10; glucose, 10. The pH was adjusted to 7.34 with sodium hydroxide. The extracellular fluid was stored at 2-8 °C.
The intracellular fluid (mM) was: potassium aspartate, 130; magnesium chloride, 5; ethylene glycol tetraacetic acid (EGTA), 5; N-2-hydroxyethylpiperazine-N'-2-ethanesulfonic acid (HEPES), 10. […]
For administration of the test samples, perfusion was carried out using a perfusion system utilizing the gravity of one's own. […] The mean of the peak current amplitudes recorded for the last three times during the initial recording served as the current peak of the negative control. After the initial current was stable, the test samples were administered starting from a low concentration until three recorded peak currents were again stable or the peak currents were "constant" after and before continuous administration for 5 min. […]

T1 sequence (Q12809 whole entry): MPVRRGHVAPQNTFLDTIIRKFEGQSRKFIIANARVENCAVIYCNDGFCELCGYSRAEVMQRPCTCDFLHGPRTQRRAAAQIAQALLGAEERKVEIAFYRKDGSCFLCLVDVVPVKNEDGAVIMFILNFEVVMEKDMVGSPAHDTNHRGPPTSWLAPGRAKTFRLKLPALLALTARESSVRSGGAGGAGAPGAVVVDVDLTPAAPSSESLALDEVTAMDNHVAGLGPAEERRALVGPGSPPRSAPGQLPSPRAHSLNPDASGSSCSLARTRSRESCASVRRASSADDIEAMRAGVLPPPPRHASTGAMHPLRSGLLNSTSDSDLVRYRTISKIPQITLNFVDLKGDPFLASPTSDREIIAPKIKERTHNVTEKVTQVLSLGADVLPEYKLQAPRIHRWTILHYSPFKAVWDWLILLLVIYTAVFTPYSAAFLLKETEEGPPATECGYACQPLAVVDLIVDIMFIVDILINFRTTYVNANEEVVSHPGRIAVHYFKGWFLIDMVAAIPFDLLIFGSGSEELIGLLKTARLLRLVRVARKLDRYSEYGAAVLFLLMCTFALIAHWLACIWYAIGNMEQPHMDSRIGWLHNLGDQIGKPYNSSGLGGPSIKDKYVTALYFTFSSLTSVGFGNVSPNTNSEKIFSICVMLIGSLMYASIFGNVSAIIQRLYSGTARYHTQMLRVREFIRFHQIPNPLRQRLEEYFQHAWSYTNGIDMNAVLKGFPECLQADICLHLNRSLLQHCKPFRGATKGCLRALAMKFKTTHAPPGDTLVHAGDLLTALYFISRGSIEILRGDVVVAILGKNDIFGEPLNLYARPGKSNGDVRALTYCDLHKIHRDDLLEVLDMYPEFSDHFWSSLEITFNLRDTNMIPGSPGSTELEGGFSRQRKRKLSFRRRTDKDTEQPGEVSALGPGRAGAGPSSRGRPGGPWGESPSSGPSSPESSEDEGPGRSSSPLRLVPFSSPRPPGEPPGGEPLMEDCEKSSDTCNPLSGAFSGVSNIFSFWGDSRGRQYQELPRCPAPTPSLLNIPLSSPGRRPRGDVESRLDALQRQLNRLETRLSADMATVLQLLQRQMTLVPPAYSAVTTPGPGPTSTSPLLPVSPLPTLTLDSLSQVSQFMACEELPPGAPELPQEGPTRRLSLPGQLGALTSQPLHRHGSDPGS

Row | Molecule | Percentage blocking rate of hERG channel [%]
1 | O=C(NC1CCc2cc(C#Cc3cnn(C(F)F)c3)cc3c2N(CC3)C1=O)c1ncn(Cc2c(F)cccc2F)n1 (centres unmarked) [III-17, 1-(2,6-difluorobenzyl)-N-(9-((1-(difluoromethyl)-1H-pyrazol-4-yl)ethynyl)-4-oxo-1,2,3,4,6,7-hexahydroazepino[3,2,1-hi]indol-3-yl)-1H-1,2,4-triazole-3-carboxamide] | 38.89
2 | N-(9-((1-(difluoromethyl)-1H-pyrazol-4-yl)ethynyl)-4-oxo-1,2,3,4,6,7-hexahydroazepino[3,2,1-hi]indol-3-yl)-1-(4-methylbenzyl)-1H-1,2,4-triazole-3-carboxamide [III-25] | 39.58
